Data reported in the supplement of paper PMC10307832.

These cell lines were tested with C1=CC2=NC=CN=C2C=C1/C=C/3\C(=O)NC(=O)S3 + Cc1cc(Nc2cc(N3CCN(C)CC3)nc(Sc3ccc(NC(=O)C4CC4)cc3)n2)n[nH]1 [Tozasertib] (partner 0.1 µM) (assay: relative viability (nuclei count vs DMSO), 5 days (fraction); higher = more cells survive). Conditions: first compound 0.02 µM.
In short: (§1)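 For relative viability, nuclei counts in treated wells were divided by those in vehicle wells. Lung cancer cell lines had been pin-tool dosed in 1536-well plates the day after seeding and cultured for 5 days, then fixed and stained in one step (final 0.05% Triton X-100, 1% formaldehyde, 1 ug/ml Hoechst) and imaged at 4×. Doses were one drug alone or a fixed anchor-drug dose plus five library-drug doses (not always all listed) in √10 steps, and values are duplicate-plate medians.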
NCI-H1944 gave a relative viability of 0.254. Cell Line NCI-H1975 has a relative viability of 0.804. In the case of RERF-LC-KJ, the relative viability was 0.443. With ABC-1 the relative viability was 0.175. Cell Line NCI-H358 has a relative viability of 0.1. Cell Line NCI-H650 has a relative viability of 0.777. Work on PC-3 [JPC-3] yielded a relative viability of 0.811.

Same assay, conditions: first compound 0.06325 µM
NCI-H1944 showed a relative viability of 0.206. In the case of NCI-H1975, the relative viability was 0.917. RERF-LC-KJ gave a relative viability of 0.613. For ABC-1, the relative viability was 0.217. With NCI-H358 the relative viability was 0.11. NCI-H650 gave a relative viability of 0.725. For PC-3 [JPC-3], the relative viability was 0.811.

Same assay, conditions: first compound 0.2 µM
NCI-H1944 gave a relative viability of 0.261. NCI-H1975 showed a relative viability of 0.759. Cell Line RERF-LC-KJ has a relative viability of 0.592. ABC-1 gave a relative viability of 0.193. NCI-H358 gave a relative viability of 0.0984. NCI-H650 gave a relative viability of 0.705. Cell Line PC-3 [JPC-3] has a relative viability of 0.905.

Same assay, conditions: first compound 0.6325 µM
NCI-H1944 was tested, and the relative viability was 0.239. NCI-H1975 was tested, and the relative viability was 0.712. Work on RERF-LC-KJ yielded a relative viability of 0.452. In the case of ABC-1, the relative viability was 0.165. With NCI-H358 the relative viability was 0.127. Cell Line NCI-H650 has a relative viability of 0.749. Work on PC-3 [JPC-3] yielded a relative viability of 0.913.

Same assay, conditions: first compound 2 µM
NCI-H1944 was tested, and the relative viability was 0.238. Cell Line NCI-H1975 has a relative viability of 0.708. RERF-LC-KJ gave a relative viability of 0.46. For ABC-1, the relative viability was 0.179. For NCI-H358, the relative viability was 0.0886. With NCI-H650 the relative viability was 0.55. With PC-3 [JPC-3] the relative viability was 0.869.

The cell lines below were run with C1=CC2=NC=CN=C2C=C1/C=C/3\C(=O)NC(=O)S3 + COc1cc2c(Oc3ccc(NC(=O)C4(C(=O)Nc5ccc(F)cc5)CC4)cc3F)ccnc2cc1OCCCN1CCOCC1 [Foretinib] (partner 0.25 µM) in the same assay as above. Conditions: first compound 0.02 µM.
In short: as §1
With NCI-H1944 the relative viability was 0.814. NCI-H1975 gave a relative viability of 0.904. With RERF-LC-KJ the relative viability was 0.831. Work on ABC-1 yielded a relative viability of 0.93. In the case of NCI-H358, the relative viability was 0.875. Cell Line NCI-H650 has a relative viability of 1.01. For PC-3 [JPC-3], the relative viability was 0.997.

Same assay, conditions: first compound 0.06325 µM
In the case of NCI-H1944, the relative viability was 0.78. NCI-H1975 gave a relative viability of 1.03. In the case of RERF-LC-KJ, the relative viability was 0.825. In the case of ABC-1, the relative viability was 1.24. Cell Line NCI-H358 has a relative viability of 0.648. NCI-H650 was tested, and the relative viability was 1.09. For PC-3 [JPC-3], the relative viability was 1.14.

Same assay, conditions: first compound 0.2 µM
NCI-H1944 gave a relative viability of 0.885. For NCI-H1975, the relative viability was 0.992. In the case of RERF-LC-KJ, the relative viability was 0.874. ABC-1 showed a relative viability of 0.875. For NCI-H358, the relative viability was 0.672. Cell Line NCI-H650 has a relative viability of 1.04. PC-3 [JPC-3] gave a relative viability of 1.02.

Same assay, conditions: first compound 0.6325 µM
NCI-H1944 gave a relative viability of 0.795. Work on NCI-H1975 yielded a relative viability of 0.866. For RERF-LC-KJ, the relative viability was 0.814. In the case of ABC-1, the relative viability was 1.27. With NCI-H358 the relative viability was 0.613. NCI-H650 showed a relative viability of 1.08. For PC-3 [JPC-3], the relative viability was 1.

Same assay, conditions: first compound 2 µM
In the case of NCI-H1944, the relative viability was 0.903. NCI-H1975 gave a relative viability of 0.84. Work on RERF-LC-KJ yielded a relative viability of 0.695. For ABC-1, the relative viability was 0.999. In the case of NCI-H358, the relative viability was 0.445. Work on NCI-H650 yielded a relative viability of 0.711. Cell Line PC-3 [JPC-3] has a relative viability of 1.06.

What follows are cell lines tested with CCN1CCN(c2ccc(Nc3cc(N(C)C(=O)Nc4c(Cl)c(OC)cc(OC)c4Cl)ncn3)cc2)CC1 [BGJ398] + Cc1nc(NC(=O)N2CCC[C@H]2C(N)=O)sc1-c1ccnc(C(C)(C)C(F)(F)F)c1 [Alpelisib] (partner 2 µM) in the same assay as above. Conditions: first compound 0.01 µM.
In short: as §1
Cell Line NCI-H1944 has a relative viability of 0.689. With NCI-H1975 the relative viability was 0.601. Cell Line RERF-LC-KJ has a relative viability of 0.922. In the case of ABC-1, the relative viability was 0.96. NCI-H358 was tested, and the relative viability was 0.881. With NCI-H650 the relative viability was 1.05. In the case of PC-3 [JPC-3], the relative viability was 1.05.

Same assay, conditions: first compound 0.03162 µM
Cell Line NCI-H1944 has a relative viability of 0.816. In the case of NCI-H1975, the relative viability was 0.642. In the case of RERF-LC-KJ, the relative viability was 0.85. In the case of ABC-1, the relative viability was 1.04. Cell Line NCI-H358 has a relative viability of 0.893. NCI-H650 was tested, and the relative viability was 1.2.

Same assay, conditions: first compound 0.1 µM
Cell Line NCI-H1944 has a relative viability of 0.899. NCI-H1975 was tested, and the relative viability was 0.745. Work on RERF-LC-KJ yielded a relative viability of 0.816. ABC-1 was tested, and the relative viability was 1.03. NCI-H358 showed a relative viability of 0.857. In the case of NCI-H650, the relative viability was 1.33. PC-3 [JPC-3] gave a relative viability of 1.04.

Same assay, conditions: first compound 0.3162 µM
NCI-H1944 showed a relative viability of 0.805. For NCI-H1975, the relative viability was 0.667. RERF-LC-KJ showed a relative viability of 0.833. ABC-1 gave a relative viability of 1.15. Work on NCI-H358 yielded a relative viability of 0.97. With NCI-H650 the relative viability was 1.19. Cell Line PC-3 [JPC-3] has a relative viability of 0.948.

Same assay, conditions: first compound 1 µM
NCI-H1944 was tested, and the relative viability was 0.845. For NCI-H1975, the relative viability was 0.61. RERF-LC-KJ gave a relative viability of 0.79. Work on ABC-1 yielded a relative viability of 0.836. For NCI-H358, the relative viability was 0.937. Work on NCI-H650 yielded a relative viability of 1.1. PC-3 [JPC-3] gave a relative viability of 0.973.

What follows are cell lines tested with C1=CC2=NC=CN=C2C=C1/C=C/3\C(=O)NC(=O)S3 + NC(=O)Nc1cc(-c2cccc(F)c2)sc1C(=O)N[C@H]1CCCNC1 [AZD7762] (partner 0.2 µM) in the same assay as above. Conditions: first compound 0.02 µM.
In short: as §1
NCI-H1944 showed a relative viability of 0.52. For NCI-H1975, the relative viability was 0.589. RERF-LC-KJ was tested, and the relative viability was 0.707. Work on ABC-1 yielded a relative viability of 0.696. NCI-H358 was tested, and the relative viability was 0.556. NCI-H650 showed a relative viability of 0.866. Cell Line PC-3 [JPC-3] has a relative viability of 0.966.

Same assay, conditions: first compound 0.06325 µM
For NCI-H1944, the relative viability was 0.448. With NCI-H1975 the relative viability was 0.632. Work on RERF-LC-KJ yielded a relative viability of 0.894. Work on ABC-1 yielded a relative viability of 1.23. Work on NCI-H358 yielded a relative viability of 0.406. With NCI-H650 the relative viability was 1.06. With PC-3 [JPC-3] the relative viability was 1.02.

Same assay, conditions: first compound 0.2 µM
Work on NCI-H1944 yielded a relative viability of 0.535. Work on NCI-H1975 yielded a relative viability of 0.705. Work on RERF-LC-KJ yielded a relative viability of 0.962. Work on ABC-1 yielded a relative viability of 1.1. NCI-H358 was tested, and the relative viability was 0.621. Work on NCI-H650 yielded a relative viability of 1.17. Cell Line PC-3 [JPC-3] has a relative viability of 0.9.

Same assay, conditions: first compound 0.6325 µM
For NCI-H1944, the relative viability was 0.403. NCI-H1975 gave a relative viability of 0.747. RERF-LC-KJ showed a relative viability of 0.943. ABC-1 showed a relative viability of 0.819. For NCI-H358, the relative viability was 0.473. For NCI-H650, the relative viability was 0.959. PC-3 [JPC-3] showed a relative viability of 0.846.

Same assay, conditions: first compound 2 µM
NCI-H1944 showed a relative viability of 0.437. NCI-H1975 gave a relative viability of 0.418. Cell Line RERF-LC-KJ has a relative viability of 0.624. ABC-1 was tested, and the relative viability was 0.957. NCI-H358 gave a relative viability of 0.204. NCI-H650 gave a relative viability of 0.69. PC-3 [JPC-3] showed a relative viability of 0.713.
